From ChEMBL document CHEMBL1641516, “Preparation and evaluation of trisubstituted pyrimidines as phosphatidylinositol 3-kinase inhibitors. 3-Hydroxyphenol analogues and bioisosteric replacements” (Bioorg Med Chem, 2011)

Columns and labels:
[1] = molecular target: Phosphatidylinositol 4,5-bisphosphate 3-kinase catalytic subunit alpha isoform (Homo sapiens, UniProt P42336)
Description: Inhibition of human recombinant PI3K p110alpha after 1 hr by radiometric scintillation proximity assay

IGROV-1 [2] = experiment: cells; details: Homo sapiens, IGROV-1, 96 h
Description: Cytotoxicity against human IGROV1 cells after 96 hrs by SRB assay

[3] = molecular target: Phosphatidylinositol 4,5-bisphosphate 3-kinase catalytic subunit beta isoform (Homo sapiens, UniProt P42338); experiment: Inhibition of human recombinant PI3K p110beta after 1 hr by radiometric scintillation proximity assay
Chain of Phosphatidylinositol 4,5-bisphosphate 3-kinase catalytic subunit beta isoform (P42338 whole entry, canonical isoform): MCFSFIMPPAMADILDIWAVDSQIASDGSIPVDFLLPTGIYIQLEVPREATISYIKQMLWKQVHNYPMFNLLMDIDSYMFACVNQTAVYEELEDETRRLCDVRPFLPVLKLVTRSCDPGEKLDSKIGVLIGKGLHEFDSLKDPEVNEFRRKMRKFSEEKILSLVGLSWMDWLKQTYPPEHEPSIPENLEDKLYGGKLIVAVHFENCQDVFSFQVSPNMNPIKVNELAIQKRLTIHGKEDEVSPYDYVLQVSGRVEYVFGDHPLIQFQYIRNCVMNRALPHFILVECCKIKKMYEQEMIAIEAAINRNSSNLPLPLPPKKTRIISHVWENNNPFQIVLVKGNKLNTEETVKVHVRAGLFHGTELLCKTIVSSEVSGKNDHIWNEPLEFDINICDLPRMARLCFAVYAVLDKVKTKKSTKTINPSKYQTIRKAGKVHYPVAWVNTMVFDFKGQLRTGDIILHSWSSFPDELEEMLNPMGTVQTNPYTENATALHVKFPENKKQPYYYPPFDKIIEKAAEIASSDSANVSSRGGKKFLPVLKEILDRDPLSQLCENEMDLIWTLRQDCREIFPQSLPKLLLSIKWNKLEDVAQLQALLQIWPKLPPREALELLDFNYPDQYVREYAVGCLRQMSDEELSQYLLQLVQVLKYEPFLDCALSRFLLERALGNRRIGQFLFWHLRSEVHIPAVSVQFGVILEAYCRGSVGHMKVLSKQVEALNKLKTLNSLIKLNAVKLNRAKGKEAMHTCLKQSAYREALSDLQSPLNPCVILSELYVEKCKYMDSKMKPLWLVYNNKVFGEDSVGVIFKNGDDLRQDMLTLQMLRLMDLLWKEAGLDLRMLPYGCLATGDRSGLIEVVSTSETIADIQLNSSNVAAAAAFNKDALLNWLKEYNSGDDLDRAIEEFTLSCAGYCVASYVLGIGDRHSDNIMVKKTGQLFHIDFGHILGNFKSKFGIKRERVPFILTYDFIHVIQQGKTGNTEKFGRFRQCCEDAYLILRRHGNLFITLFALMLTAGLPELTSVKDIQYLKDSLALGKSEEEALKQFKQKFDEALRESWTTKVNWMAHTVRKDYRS

[4] = molecular target: Phosphatidylinositol 4,5-bisphosphate 3-kinase catalytic subunit gamma isoform (Homo sapiens, UniProt P48736)
Chain of Phosphatidylinositol 4,5-bisphosphate 3-kinase catalytic subunit gamma isoform (P48736 whole entry, canonical isoform): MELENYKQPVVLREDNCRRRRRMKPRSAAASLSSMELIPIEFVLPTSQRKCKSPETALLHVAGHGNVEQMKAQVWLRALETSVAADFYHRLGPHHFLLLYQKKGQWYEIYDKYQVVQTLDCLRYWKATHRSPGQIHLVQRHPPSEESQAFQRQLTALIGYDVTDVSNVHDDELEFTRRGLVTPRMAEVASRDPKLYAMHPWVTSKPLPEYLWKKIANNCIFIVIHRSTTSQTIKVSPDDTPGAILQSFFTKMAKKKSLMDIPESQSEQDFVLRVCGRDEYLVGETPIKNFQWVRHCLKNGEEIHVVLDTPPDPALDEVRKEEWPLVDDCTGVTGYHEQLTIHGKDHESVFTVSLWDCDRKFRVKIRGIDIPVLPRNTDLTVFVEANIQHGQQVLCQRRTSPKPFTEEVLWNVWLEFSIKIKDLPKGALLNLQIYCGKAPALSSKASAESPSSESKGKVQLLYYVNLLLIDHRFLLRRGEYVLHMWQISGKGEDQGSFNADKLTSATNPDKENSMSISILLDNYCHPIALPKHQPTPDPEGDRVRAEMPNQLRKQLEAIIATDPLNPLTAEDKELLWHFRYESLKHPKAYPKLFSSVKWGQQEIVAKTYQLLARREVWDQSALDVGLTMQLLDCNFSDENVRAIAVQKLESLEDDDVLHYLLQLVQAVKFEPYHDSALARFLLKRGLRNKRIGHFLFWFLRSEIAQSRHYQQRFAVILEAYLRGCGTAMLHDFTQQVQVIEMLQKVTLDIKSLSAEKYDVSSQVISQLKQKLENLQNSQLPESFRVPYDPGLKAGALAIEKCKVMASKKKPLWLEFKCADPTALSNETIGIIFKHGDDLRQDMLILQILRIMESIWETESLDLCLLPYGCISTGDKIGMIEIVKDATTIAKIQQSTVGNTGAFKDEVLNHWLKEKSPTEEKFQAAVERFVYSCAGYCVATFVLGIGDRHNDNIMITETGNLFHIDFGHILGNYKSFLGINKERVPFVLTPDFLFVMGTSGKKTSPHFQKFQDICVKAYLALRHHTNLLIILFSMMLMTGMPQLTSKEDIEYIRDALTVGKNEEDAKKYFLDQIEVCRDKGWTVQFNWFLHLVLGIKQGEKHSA
Description: Inhibition of human recombinant PI3K p110gamma after 1 hr by radiometric scintillation proximity assay

[5] = Metabolic stability in mouse liver microsomes assessed as compound metabolized at […] after 30 mins by MS analysis; format: ADME, Microsome; details: read-out: Activity
[6] = Metabolic stability in mouse liver microsomes assessed as compound metabolized at […] after 15 mins by MS analysis; format: ADME, Microsome; details: read-out: Activity
IGROV-1 [7] = experiment: Cell cycle arrest in human IGROV1 cells assessed as accumulation at G2/M phase at 5 fold IC50 after 24 hrs by flow cytometry; format: functional
IGROV-1 [8] = experiment: Cell cycle arrest in human IGROV1 cells assessed as accumulation at S phase at 1 fold IC50 after 24 hrs by flow cytometry; format: functional
IGROV-1 [9] = experiment: Cell cycle arrest in human IGROV1 cells assessed as accumulation at G1 phase at 5 fold IC50 after 24 hrs by flow cytometry; format: functional
IGROV-1 [10] = experiment: Cell cycle arrest in human IGROV1 cells assessed as accumulation at G1 phase at 1 fold IC50 after 24 hrs by flow cytometry; format: functional
IGROV-1 [11] = experiment: Cell cycle arrest in human IGROV1 cells assessed as accumulation at G2/M phase at 1 fold IC50 after 24 hrs by flow cytometry; format: functional
IGROV-1 [12] = experiment: Cell cycle arrest in human IGROV1 cells assessed as accumulation at S phase at 5 fold IC50 after 24 hrs by flow cytometry; format: functional

Chain of Phosphatidylinositol 4,5-bisphosphate 3-kinase catalytic subunit alpha isoform (P42336 whole entry, canonical isoform): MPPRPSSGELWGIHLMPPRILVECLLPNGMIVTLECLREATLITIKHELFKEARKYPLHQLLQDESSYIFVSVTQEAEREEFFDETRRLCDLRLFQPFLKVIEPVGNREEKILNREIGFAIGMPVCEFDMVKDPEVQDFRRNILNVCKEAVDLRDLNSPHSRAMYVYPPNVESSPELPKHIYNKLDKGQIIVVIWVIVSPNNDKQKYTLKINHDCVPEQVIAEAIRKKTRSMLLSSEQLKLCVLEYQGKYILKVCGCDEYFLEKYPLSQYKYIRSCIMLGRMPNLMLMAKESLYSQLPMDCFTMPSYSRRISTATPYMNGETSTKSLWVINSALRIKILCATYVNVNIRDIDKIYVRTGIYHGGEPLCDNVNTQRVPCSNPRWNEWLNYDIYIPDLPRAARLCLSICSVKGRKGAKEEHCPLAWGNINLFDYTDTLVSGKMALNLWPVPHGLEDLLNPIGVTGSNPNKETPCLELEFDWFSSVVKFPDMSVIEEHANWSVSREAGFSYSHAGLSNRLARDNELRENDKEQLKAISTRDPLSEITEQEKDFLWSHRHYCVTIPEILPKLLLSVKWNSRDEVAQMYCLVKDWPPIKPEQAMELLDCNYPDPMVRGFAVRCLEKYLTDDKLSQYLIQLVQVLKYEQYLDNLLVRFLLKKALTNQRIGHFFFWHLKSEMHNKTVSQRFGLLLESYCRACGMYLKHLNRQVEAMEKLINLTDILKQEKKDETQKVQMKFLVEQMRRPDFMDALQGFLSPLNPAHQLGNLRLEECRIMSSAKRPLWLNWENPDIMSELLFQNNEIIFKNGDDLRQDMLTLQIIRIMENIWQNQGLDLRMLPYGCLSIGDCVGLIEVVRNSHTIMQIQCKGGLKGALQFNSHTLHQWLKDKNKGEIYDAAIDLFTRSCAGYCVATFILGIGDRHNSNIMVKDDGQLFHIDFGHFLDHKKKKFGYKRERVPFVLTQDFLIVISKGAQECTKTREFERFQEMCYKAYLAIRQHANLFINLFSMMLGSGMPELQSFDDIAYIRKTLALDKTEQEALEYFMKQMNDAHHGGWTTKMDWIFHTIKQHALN

SMILES	IC50 [1] [nM]	GI50 (IGROV-1 [2]) [nM]	further results
CS(=O)(=O)Nc1ccc(-c2cc(N3CCOCC3)nc(OCc3ccccn3)n2)cc1	6200	13500	
c1cncc(CCNc2cc(-c3ccc4cc[nH]c4c3)nc(N3CCOCC3)n2)c1	> 10000	6000	
c1cc(-c2cc(NCCc3ccncc3)nc(N3CCOCC3)n2)c2cn[nH]c2c1	770	2700	metabolised at 0.5 h [5]: 68%; metabolised at 0.25 h [6]: 37%
c1ccc(COc2nc(-c3ccc4cc[nH]c4c3)cc(N3CCOCC3)n2)nc1	5200	9000	
c1cc(CCNc2cc(-c3ccc4cc[nH]c4c3)nc(N3CCOCC3)n2)ccn1	> 10000	14500	
CS(=O)(=O)Nc1ccc(-c2cc(OCc3ccccn3)nc(N3CCOCC3)n2)cc1	> 10000	16000	
O=c1cc(N2CCOCC2)oc2c(-c3ccccc3)cccc12 [LY-294002]			Activity (IGROV-1 [7]): 15%; Activity (IGROV-1 [8]): 21%; Activity (IGROV-1 [9]): 82%; Activity (IGROV-1 [10]): 72%; Activity (IGROV-1 [11]): 7%; Activity (IGROV-1 [12]): 3%
c1cc(-c2cc(N3CCOCC3)nc(NCCc3ccncc3)n2)c2cn[nH]c2c1	440	1500	metabolised at 0.5 h [5]: 74%; metabolised at 0.25 h [6]: 49%
c1ccc(COc2cccc(-c3nc(-c4ccccn4)cc(N4CCOCC4)n3)c2)cc1	> 10000		
c1ccc(COc2cc(-c3cccc4[nH]ncc34)nc(N3CCOCC3)n2)nc1	500	1900	metabolised at 0.5 h [5]: 66%; metabolised at 0.25 h [6]: 44%
c1ccc(COc2nc(-c3cccc4[nH]ncc34)cc(N3CCOCC3)n2)nc1	1350	2300	
Clc1ccc(-c2cc(N3CCOCC3)nc(-c3cccc(OCc4ccccc4)c3)n2)cc1Cl	> 10000		
c1ccc(COc2cccc(-c3nc(-c4ccncc4)cc(N4CCOCC4)n3)c2)cc1	> 10000		
c1cncc(CCNc2cc(-c3cccc4[nH]ncc34)nc(N3CCOCC3)n2)c1	660	2900	metabolised at 0.5 h [5]: 98%; metabolised at 0.25 h [6]: 66%
Clc1ccc(-c2cc(N3CCOCC3)nc(-c3cccc(OCc4ccccc4)c3)n2)cc1	> 10000		
c1ccc(CCNc2cc(-c3cccc4[nH]ncc34)nc(N3CCOCC3)n2)nc1	1300	7800	metabolised at 0.5 h [5]: 84%; metabolised at 0.25 h [6]: 58%
c1ccc(COc2cc(-c3ccc4cc[nH]c4c3)nc(N3CCOCC3)n2)nc1	> 10000	6000	
CS(=O)(=O)Nc1cccc(-c2cc(NCCc3ccncc3)nc(N3CCOCC3)n2)c1	> 10000	15000	
c1ccc(CCNc2nc(-c3cccc4[nH]ncc34)cc(N3CCOCC3)n2)nc1	1100	2700	
c1ccc(CCNc2cc(-c3ccc4cc[nH]c4c3)nc(N3CCOCC3)n2)nc1	> 10000	12000	
CS(=O)(=O)Nc1cccc(-c2cc(NCCc3ccccn3)nc(N3CCOCC3)n2)c1	> 10000	15000	

More lines, main results first:

IC50 [1] [nM]	SMILES	GI50 (IGROV-1 [2]) [nM]	further results
7200	c1cncc(CCNc2nc(-c3ccc4cc[nH]c4c3)cc(N3CCOCC3)n2)c1	4200	
250	Oc1cccc(-c2cc(N3CCOCC3)nc(NCCc3cccnc3)n2)c1	750	
> 10000	c1ccc(COc2cccc(-c3nc(-c4cccnc4)cc(N4CCOCC4)n3)c2)cc1		
140	Oc1cccc(-c2nc(-c3ccncc3)cc(N3CCOCC3)n2)c1	1200	IC50 [3]: 200 nM; IC50 [4]: 150 nM
110	Oc1cccc(-c2cc(OCc3ccccn3)nc(N3CCOCC3)n2)c1	1500	IC50 [3]: 370 nM; IC50 [4]: 730 nM
860	Oc1cccc(-c2cc(N3CCOCC3)nc(OCc3ccccn3)n2)c1	2500	
230	Oc1cccc(-c2cc(N3CCOCC3)nc(NCCc3ccncc3)n2)c1	950	
> 10000	CS(=O)(=O)Nc1cccc(-c2cc(N3CCOCC3)nc(NCCc3ccccn3)n2)c1	11500	
260	Oc1cccc(-c2cc(NCCc3cccnc3)nc(N3CCOCC3)n2)c1	1200	IC50 [3]: 1900 nM; IC50 [4]: 960 nM
1000	Oc1cccc(-c2cc(N3CCOCC3)nc(NCc3ccccn3)n2)c1		
180	Oc1cccc(-c2cc(N3CCOCC3)nc(NCCc3ccccn3)n2)c1	1200	IC50 [3]: 5200 nM; IC50 [4]: 380 nM
200	Oc1cccc(-c2nc(-c3ccc(Cl)c(Cl)c3)cc(N3CCOCC3)n2)c1		
9100	CS(=O)(=O)Nc1cccc(-c2cc(N3CCOCC3)nc(NCCc3ccncc3)n2)c1	6200	metabolised at 0.5 h [5]: 53%; metabolised at 0.25 h [6]: 33%
> 10000	CS(=O)(=O)Nc1cccc(-c2cc(NCCc3cccnc3)nc(N3CCOCC3)n2)c1	11600	
260	Oc1cccc(-c2nc(-c3cccnc3)cc(N3CCOCC3)n2)c1	630	IC50 [3]: 440 nM; IC50 [4]: 340 nM
140	Oc1cccc(-c2cc(NCCc3ccncc3)nc(N3CCOCC3)n2)c1	700	Activity (IGROV-1 [7]): 10%; metabolised at 0.5 h [5]: 71%; metabolised at 0.25 h [6]: 54%; Activity (IGROV-1 [8]): 21%; Activity (IGROV-1 [9]): 87%; Activity (IGROV-1 [10]): 75%; Activity (IGROV-1 [11]): 4%; Activity (IGROV-1 [12]): 2%; IC50 [3]: 1600 nM; IC50 [4]: 740 nM
62	Oc1cccc(-c2nc(-c3ccccn3)cc(N3CCOCC3)n2)c1	370	Activity (IGROV-1 [7]): 10%; metabolised at 0.5 h [5]: 57%; metabolised at 0.25 h [6]: 39%; Activity (IGROV-1 [8]): 20%; Activity (IGROV-1 [9]): 84%; Activity (IGROV-1 [10]): 76%; Activity (IGROV-1 [11]): 3%; Activity (IGROV-1 [12]): 5%; IC50 [3]: 100 nM; IC50 [4]: 44 nM
> 10000	c1cc(CCNc2nc(-c3ccc4cc[nH]c4c3)cc(N3CCOCC3)n2)ccn1	3000	metabolised at 0.5 h [5]: 60%; metabolised at 0.25 h [6]: 38%
250	Oc1cccc(-c2cc(NCCc3ccccn3)nc(N3CCOCC3)n2)c1	2200	IC50 [3]: 2600 nM; IC50 [4]: 830 nM
1000	Oc1cccc(-c2cc(NCc3ccncc3)nc(N3CCOCC3)n2)c1		
860	Oc1cccc(-c2cc(N3CCOCC3)nc(NCc3ccncc3)n2)c1		
880	Oc1cccc(-c2cc(N3CCOCC3)nc(NCc3cccnc3)n2)c1		
690	Oc1cccc(-c2nc(-c3ccc(Cl)cc3)cc(N3CCOCC3)n2)c1		
> 10000	CS(=O)(=O)Nc1cccc(-c2cc(N3CCOCC3)nc(NCCc3cccnc3)n2)c1	16200	
820	c1cncc(CCNc2nc(-c3cccc4[nH]ncc34)cc(N3CCOCC3)n2)c1	2900	
900	Oc1cccc(-c2cc(NCc3ccccn3)nc(N3CCOCC3)n2)c1		IC50 [3]: 2300 nM; IC50 [4]: 7600 nM
